Reference: US20120302569A1, “PHENYL-THIAZOLYL INHIBITORS OF PRO-MATRIX METALLOPROTEINASE ACTIVATION” (priority 2011, published 2012)
Where a name gives a salt, the structure may show the parent alone.

How the values were obtained:
[1] = biological target: T1, proMMP9(20-445;ΔFnII) (SEQ ID NO:6) (Homo sapiens, UniProt P14780, DEL216-390); assay: ThermoFluor with proMMP9(20-445;ΔFnII); conditions: read-out: proMMP9(20-445; ΔFnII) (SEQ ID NO: 6) binding
T1 construct: start methionine (N); made in house; host or cells: E. coli BL21(DE3) RIL
T1 sequence (P14780 with tags, fused parts or gaps DEL216-390): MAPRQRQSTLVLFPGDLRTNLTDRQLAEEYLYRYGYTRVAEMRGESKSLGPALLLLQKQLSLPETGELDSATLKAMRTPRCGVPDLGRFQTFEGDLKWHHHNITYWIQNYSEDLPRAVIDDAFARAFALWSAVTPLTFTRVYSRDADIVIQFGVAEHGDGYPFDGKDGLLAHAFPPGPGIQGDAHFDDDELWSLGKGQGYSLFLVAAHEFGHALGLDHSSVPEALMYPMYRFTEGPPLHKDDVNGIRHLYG
Description: (§1) The ThermoFluor® (TF) assay is a 384-well plate-based binding assay that measures thermal stability of proteins (Biomol Screen 2001, 6, 429-40; Biochemistry 2005, 44, 5258-66). The experiments were carried out using instruments available from Johnson & Johnson Pharmaceutical Research & Development, LLC. TF dye used in all experiments was […] (1,8-ANS) (Invitrogen: A-47).
(§2) Compounds were arranged in a pre-dispensed plate (Greiner Bio-one: 781280), wherein compounds were serially diluted in 100% DMSO across 11 columns within a series. Columns 12 and 24 were used as DMSO reference and contained no compound. For multiple compound concentration-response experiments, the compound aliquots (50 nL) were robotically predispensed directly into black 384-well polypropylene PCR microplates (Abgene: TF-0384/k) using a Cartesian Hummingbird liquid handler (DigiLab, Holliston, Mass.). Following compound dispense, protein and dye solutions were added to achieve the final assay volume of 3 μL. The assay solutions were overlayed with 1 μL of silicone oil (Fluka, type DC 200: 85411) to prevent evaporation.
(§3) Assay plates were robotically loaded onto a thermostatically controlled PCR-type thermal block and then heated from 40 to 90° C. at a ramp-rate of 1° C./min for all experiments. Fluorescence was measured by continuous illumination with UV light (Hamamatsu LC6) supplied via fiber optics and filtered through a band-pass filter (380-400 nm; >6 OD cutoff). Fluorescence emission of the entire 384-well plate was detected by measuring light intensity using a CCD camera (Sensys, Roper Scientific) filtered to detect 500±25 nm, resulting in simultaneous and independent readings of all 384 wells. A single image with 20-sec exposure time was collected at each temperature, and the sum of the pixel intensity in a given area of the assay plate was recorded vs temperature and fit to standard equations to yield the Tm (J Biomol Screen 2001, 6, 429-40).
(§4) Thermodynamic parameters necessary for fitting compound binding for each proMMP were estimated by differential scanning calorimetry (DSC) and from ThermoFluor® data. The heat capacity of unfolding for each protein was estimated from the molecular weight and from ThermoFluor® dosing data.
ThermoFluor® with proMMP9(20-445;ΔFnII) (SEQ ID NO:6)
The protein sample preparations included a desalting buffer exchange step via a PD-10 gravity column (GE Healthcare). The desalting buffer exchange was performed prior to diluting the protein to the final assay concentration of 2.8 μM proMMP9(20-445;ΔFnII) (SEQ ID NO:6). The concentration of proMMP9(20-445;ΔFnII) (SEQ ID NO:6) was determined spectrophotometrically based on a calculated extinction coefficient of ε280=39880 M^−1cm^−1, a calculated molecular weight of 28.2 kDa, and calculated pI of 5.5. ThermoFluor® reference conditions were define as follows: 80 μg/mL (2.8 μM) proMMP9(20-445;ΔFnII) (SEQ ID NO:6), 50 μM 1,8-ANS, pH 7.0 Buffer (50 mM HEPES pH 7.0, 100 mM NaCl, 0.001% Tween-20, 2.5 mM MgCl2, 300 μM CaCl2). The thermodynamic parameters for proMMP9(20-445;ΔFnII) (SEQ ID NO:6) are as follows: Tm (° C.)=72 (+/−0.1), ΔUH(Tm) (cal mol^−1)=160000(+/−5000), ΔUS(Tm) (cal mol^−1 K^−1)=434, ΔUCp (cal mol^−1 K^−1)=2400.

[2] = biological target: T2, proMMP9(67-444;ΔFnII) (SEQ ID NO:5) (Homo sapiens, UniProt P14780, DEL216-390); assay: ThermoFluor with proMMP9(67-444;ΔFnII); conditions: read-out: proMMP9(67-444; ΔFnII) (SEQ ID NO: 5) binding
T2 construct: start methionine (N); made in house; host or cells: E. coli BL21(DE3) RIL
T2 sequence (P14780 with tags, fused parts or gaps DEL216-390): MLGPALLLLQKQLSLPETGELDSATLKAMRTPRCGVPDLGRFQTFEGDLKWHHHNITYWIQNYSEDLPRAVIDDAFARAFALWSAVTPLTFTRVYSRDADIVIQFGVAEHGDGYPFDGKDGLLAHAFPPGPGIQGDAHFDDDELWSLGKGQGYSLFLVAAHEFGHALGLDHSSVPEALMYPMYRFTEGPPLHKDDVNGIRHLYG
Description: as §1, §2, §3, §4
ThermoFluor® with proMMP9(67-444;ΔFnII) (SEQ ID NO:5)
The protein sample preparations had to include a desalting buffer exchange step via a PD-10 gravity column (GE Healthcare). The desalting buffer exchange was performed prior to diluting the protein to the final assay concentration of 3.5 μM proMMP9(67-444;ΔFnII) (SEQ ID NO:5). The concentration of proMMP9(67-444;ΔFnII) (SEQ ID NO:5) was determined spectrophotometrically based on a calculated extinction coefficient of ε280=33900 M^−1cm^−1, a calculated molecular weight of 22.6 kDa, and calculated pI of 5.20. ThermoFluor® reference conditions were defined as follows: 80 μg/mL (3.5 μM) proMMP9(67-444;ΔFnII) (SEQ ID NO:5), 50 μM 1,8-ANS, pH 7.0 Buffer (50 mM HEPES pH 7.0, 100 mM NaCl, 0.001% Tween-20, 2.5 mM MgCl2, 300 μM CaCl2). The thermodynamic parameters for proMMP9(67-444;ΔFnII) (SEQ ID NO:5) are as follows: Tm (° C.)=63 (+/−0.1), ΔUH(Tm) (cal mol^−1)=105000(+/−5000), ΔUS(Tm) (cal mol^−1 K^−1)=450, […].

[3] = biological target: T3, full-length proMMP9(1-707) (SEQ ID NO:1) (Homo sapiens, UniProt P14780, R574P); assay: proMMP9/MMP3 P126 Activation Assay; format: biochemical; conditions: proMMP9(1-707) from HEK293 cells activated by catalytic MMP3
T3 construct: made in house; host or cells: HEK293 (proMMP9, secreted); E. coli (MMP3)
Description: proMMP9/MMP3 P126 Activation Assay
The reaction volume was 50 μL. […] Reactivity of residual MMP3 towards P-126 substrate was minimal under these conditions.

T3 sequence (P14780 20-707 R574P): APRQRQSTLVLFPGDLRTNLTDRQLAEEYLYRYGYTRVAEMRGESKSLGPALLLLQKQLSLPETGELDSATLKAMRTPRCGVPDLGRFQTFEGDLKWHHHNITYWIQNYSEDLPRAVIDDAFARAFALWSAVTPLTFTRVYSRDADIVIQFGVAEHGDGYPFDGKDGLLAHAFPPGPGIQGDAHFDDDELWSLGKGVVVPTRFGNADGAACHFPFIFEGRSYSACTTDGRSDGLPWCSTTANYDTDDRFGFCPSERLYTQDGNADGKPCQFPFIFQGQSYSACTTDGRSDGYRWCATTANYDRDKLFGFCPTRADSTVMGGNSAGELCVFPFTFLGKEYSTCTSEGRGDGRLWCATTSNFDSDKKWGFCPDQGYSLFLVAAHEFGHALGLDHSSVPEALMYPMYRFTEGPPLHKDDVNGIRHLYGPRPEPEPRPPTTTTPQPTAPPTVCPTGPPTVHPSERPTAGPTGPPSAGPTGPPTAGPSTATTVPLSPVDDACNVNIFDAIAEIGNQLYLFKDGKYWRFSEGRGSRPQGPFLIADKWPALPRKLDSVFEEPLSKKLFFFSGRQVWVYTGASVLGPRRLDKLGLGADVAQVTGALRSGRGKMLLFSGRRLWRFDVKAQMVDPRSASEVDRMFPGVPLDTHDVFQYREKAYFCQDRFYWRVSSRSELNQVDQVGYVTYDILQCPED

Row | Compound | Kd [1] | Kd [2] | IC50 [3]
1 | CCN1CCN(c2ccc(-c3csc(Nc4cc(S(N)(=O)=O)ccc4OC(C)C)n3)cc2)CC1 [Example 4, 3-((4-(4-(4-Ethylpiperazin-1-yl)phenyl)thiazol-2-yl)amino)-4-isopropoxybenzenesulfonamide.TFA] | 110 nM | 100 nM | 85 nM
2 | CC(C)Oc1ccc(S(N)(=O)=O)cc1Nc1nc(-c2ccc(N3CCN(C(C)C)CC3)cc2)cs1 [Example 5, 4-Isopropoxy-3-((4-(4-(4-isopropylpiperazin-1-yl)phenyl)thiazol-2-yl)amino)benzenesulfonamide.TFA] | – | – | 130 nM
3 | CC(C)Oc1ccc(S(N)(=O)=O)cc1Nc1nc(-c2ccc(N3CCN(Cc4ccccc4)CC3)cc2)cs1 [Example 6, 3-((4-(4-(4-Benzylpiperazin-1-yl)phenyl)thiazol-2-yl)amino)-4-isopropoxybenzenesulfonamide.TFA] | 410 nM | 650 nM | 1200 nM
4 | CC(C)Oc1ccc(C(N)=O)cc1Nc1nc(-c2ccc(N3CCN(C)CC3)cc2)cs1 [Example 8, 4-Isopropoxy-3-((4-(4-(4-methylpiperazin-1-yl)phenyl)thiazol-2-yl)amino)benzamide.TFA] | 29 nM | 67 nM | 110 nM
5 | CCN1CCN(c2ccc(-c3csc(Nc4cc(C(N)=O)ccc4OC(C)C)n3)cc2)CC1 [Example 9, 3-((4-(4-(4-Ethylpiperazin-1-yl)phenyl)thiazol-2-yl)amino)-4-isopropoxybenzamide.TFA] | 34 nM | 94 nM | 89 nM
6 | CC(C)Oc1ccc(C(N)=O)cc1Nc1nc(-c2ccc(N3CCN(Cc4ccccc4)CC3)cc2)cs1 [Example 11, 3-((4-(4-(4-Benzylpiperazin-1-yl)phenyl)thiazol-2-yl)amino)-4-isopropoxybenzamide.TFA] | 380 nM | 870 nM | 740 nM
7 | CCN1CC=C(c2ccc(-c3csc(Nc4cc(S(N)(=O)=O)ccc4OC(C)C)n3)cc2)CC1 [Example 14, 3-((4-(4-(1-Ethyl-1,2,3,6-tetrahydropyridin-4-yl)phenyl)thiazol-2-yl)amino)-4-isopropoxybenzenesulfonamide.TFA] | – | – | 34 nM
8 | CC(C)Oc1ccc(S(N)(=O)=O)cc1Nc1nc(-c2ccc(C3=CCN(C(C)C)CC3)cc2)cs1 [Example 15, 4-Isopropoxy-3-((4-(4-(1-isopropyl-1,2,3,6-tetrahydropyridin-4-yl)phenyl)thiazol-2-yl)amino)benzenesulfonamide.TFA] | 17 nM | 18 nM | 28 nM
9 | CC(C)Oc1ccc(C(N)=O)cc1Nc1nc(-c2ccc(C3=CCNCC3)cc2)cs1 [Example 16, 4-Isopropoxy-3-((4-(4-(1,2,3,6-tetrahydropyridin-4-yl)phenyl)thiazol-2-yl)amino)benzamide.TFA] | 14 nM | 33 nM | 49 nM
10 | CCOc1ccncc1Nc1nc(-c2ccc(C3=CCNCC3)cc2)cs1 [Example 20, N-(4-Ethoxypyridin-3-yl)-4-(4-(1,2,3,6-tetrahydropyridin-4-yl)phenyl)thiazol-2-amine.TFA] | 380 nM | 69 nM | 92 nM
11 | CCOc1ccncc1Nc1nc(-c2ccc(C3=CCN(C)CC3)cc2)cs1 [Example 21, N-(4-Ethoxypyridin-3-yl)-4-(4-(1-methyl-1,2,3,6-tetrahydropyridin-4-yl)phenyl)thiazol-2-amine] | 400 nM | > 76000 nM | 57 nM

Other lines, results leading:

Row | Kd [1] | Kd [2] | IC50 [3] | Compound
12 | – | – | 130 nM | CC(C)Oc1ccc(S(N)(=O)=O)cc1Nc1nc(-c2ccc(C3CCNCC3)cc2)cs1 [Example 24, 4-Isopropoxy-3-((4-(4-(piperidin-4-yl)phenyl)thiazol-2-yl)amino)benzenesulfonamide.TFA]
13 | 27 nM | 30 nM | 69 nM | CC(C)Oc1ccc(S(N)(=O)=O)cc1Nc1nc(-c2ccc(C3CCN(C)CC3)cc2)cs1 [Example 25, 4-Isopropoxy-3-((4-(4-(1-methylpiperidin-4-yl)phenyl)thiazol-2-yl)amino)benzenesulfonamide.TFA]
14 | 25 nM | 46 nM | 44 nM | CCN1CCC(c2ccc(-c3csc(Nc4cc(S(N)(=O)=O)ccc4OC(C)C)n3)cc2)CC1 [Example 26, 3-((4-(4-(1-Ethylpiperidin-4-yl)phenyl)thiazol-2-yl)amino)-4-isopropoxybenzenesulfonamide.TFA]
15 | – | – | 64 nM | CC(C)Oc1ccc(S(N)(=O)=O)cc1Nc1nc(-c2ccc(C3CCN(C(C)C)CC3)cc2)cs1 [Example 27, 4-Isopropoxy-3-((4-(4-(1-isopropylpiperidin-4-yl)phenyl)thiazol-2-yl)amino)benzenesulfonamide.TFA]
16 | 75 nM | 110 nM | 100 nM | CC(C)Oc1ccc(S(N)(=O)=O)cc1Nc1nc(-c2ccc(OCCN3CCOCC3)cc2)cs1 [Example 28, 4-Isopropoxy-3-((4-(4-(2-morpholinoethoxy)phenyl)thiazol-2-yl)amino)benzenesulfonamide.TFA]
17 | 28 nM | 100 nM | 150 nM | CC(C)Oc1ccc(C(N)=O)cc1Nc1nc(-c2ccc(OCCN3CCOCC3)cc2)cs1 [Example 29, 4-Isopropoxy-3-((4-(4-(2-morpholinoethoxy)phenyl)thiazol-2-yl)amino)benzamide.TFA]
18 | 1200 nM | 1300 nM | 1100 nM | NS(=O)(=O)c1ccc(OC(F)(F)F)c(Nc2nc(-c3ccc(OCCN4CCOCC4)cc3)cs2)c1 [Example 30, 3-((4-(4-(2-Morpholinoethoxy)phenyl)thiazol-2-yl)amino)-4-(trifluoromethoxy)benzenesulfonamide.TFA]
